“And” between values parts separate entries of the source, which are not always exact repeats. Equal entries are not always repeated. Where two headings read alike, the source gives them in different places.
Legend:
[1] = molecular target: cdk4/cyclin D1 (Homo sapiens, UniProt P11802); experiment: Cyclin-dependent kinase assay, cdk4/cyclin D1; type: biochemical; details: cyclin D1/cdk4; GST-pRb substrate, 10 µM ATP
[2] = test system: NCI-H460; experiment: In vitro proliferation assay (MTT), NCI-H460; type: cell-based; details: Homo sapiens
How it was run: (§1)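 Plate 1000–2500 cells/well, RPMI 1640 + 5 % FBS, 3 mM L-glutamine; attach overnight → compound treatment 3 days → MTT, 37 C, 2–4 hr → remove medium, solubilize in DMSO → absorbance 570 nm → IC50.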

[3] = test system: HL-60; experiment: In vitro proliferation assay (MTT), HL-60; type: cell-based; details: Homo sapiens
How it was run: as §1

[4] = test system: PC-3; experiment: In vitro proliferation assay (MTT), PC-3; type: cell-based, human; details: Homo sapiens
How it was run: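 MTT viability, 3 d compound treatment; seeding 1000–2500 cells/well, overnight attachment; formazan in DMSO, A570; IC50 fitted from raw absorbance.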

[5] = Red blood cell binding, mouse whole blood; type: in vitro ADME; details: 30 minutes at 37°C, 500 ng/ml
Experimental: Compounds, including one positive control, are assessed for red blood cell (RBC) uptake, using a modified procedure based on the protocol reported in Sun, J.X.S., et al. High-performance liquid chromatographic analysis, plasma protein binding and red blood cell partitioning of phenprobamate. Biopharmaceutics and Drug Disposition, 8 (1987) 341-351.
Briefly, RBC uptake is evaluated by comparison of the levels in spiked plasma (n=3) and plasma isolated from spiked whole blood (n=3). Compounds are incubated with human and mouse whole blood, respectively, for 30 minutes at 37°C using a nominal concentration of 500 ng/ml. Following centrifugation, the plasma is removed and submitted for analysis. Each compound is also spiked into blank plasma at a nominal concentration of 500 ng/ml, and submitted for analysis. Levels in the two plasma samples (Cp' and Cp in the equation below) and the blood hematocrit are used to determine the red blood cell to plasma ratio (Crbc/Cp). (Crbc)/(Cp) = (Cpʹ)/(Cp•H)-((1-H))/(H) [formula] In equation 1, Cp' is the level of drug in the spiked "blank" plasma, Cp is the level of drug in the plasma of spiked whole blood, and H is the hematocrit. The hematocrit values are determined as 0.4 for human whole blood and 0.41 for mouse whole blood. The samples are analyzed with ESI LC/MS, using positive ion detection with an internal standard.
The red blood cell to plasma ratio is determined for each compound using equation 1. Tables 6 and 7 summarize the respective mean Crbc/Cp values and standard deviations for mouse and human whole blood, respectively, in descending order based on the red blood cell to plasma ratio, where"*" denotes Positive Control, and "ND" denotes Not Determined. MDL 108552 is included as a positive control for red blood cell uptake. Table 6. Red Blood Cell to Plasma Ratio for compounds in mouse whole blood

[6] = in vivo; details: male, Hsd:ICR (CD-1), mouse, plasma, iv; for AUC(0-inf) / Cmax / half-life: 3 mg/kg; for concentration at 0.083 h / concentration at 0.25 h / concentration at 0.5 h / concentration at 1 h / concentration at 3 h / concentration at 6 h / concentration at 8 h: 18 mg/kg
[7] = molecular target: cdk2/cyclin E (Homo sapiens, UniProt P24941); experiment: Cyclin-dependent kinase assay, cdk2/cyclin E; details: CDK2 IC50, nM, GST-pRb substrate, 10 µM ATP
[8] = Bioavailability experiment in mice given single intravenous cassette doses; details: for Conc. (ng/ml) in plasma: mice, 24 h, BLQ = below assay quantification limit; for Cls: mice plasma, single intravenous cassette dose, 3 mg/kg/compound (18 mg/kg Total Dose)
[9] = Cassette #1, single 18 mg/kg intravenous cassette dose
[10] = NCI-H460, read-out: H-460 Lung (IC50 µM)
[11] = HL-60, read-out: HL-60 Leuk. (IC50 µM)
[12] = PC-3, read-out: PC-3 Prostate (IC50 µM)

cdk4/cyclin D1, sequence (P11802 whole entry): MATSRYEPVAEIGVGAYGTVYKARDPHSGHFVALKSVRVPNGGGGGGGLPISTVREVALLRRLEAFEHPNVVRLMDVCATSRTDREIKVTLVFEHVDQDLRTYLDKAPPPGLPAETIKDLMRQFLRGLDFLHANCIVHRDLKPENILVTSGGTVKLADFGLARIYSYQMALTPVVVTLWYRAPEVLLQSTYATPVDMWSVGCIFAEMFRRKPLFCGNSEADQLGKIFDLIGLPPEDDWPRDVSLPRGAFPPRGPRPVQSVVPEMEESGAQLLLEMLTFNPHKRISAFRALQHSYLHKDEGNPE
cdk4/cyclin D1, sequence (P24385 whole entry partner): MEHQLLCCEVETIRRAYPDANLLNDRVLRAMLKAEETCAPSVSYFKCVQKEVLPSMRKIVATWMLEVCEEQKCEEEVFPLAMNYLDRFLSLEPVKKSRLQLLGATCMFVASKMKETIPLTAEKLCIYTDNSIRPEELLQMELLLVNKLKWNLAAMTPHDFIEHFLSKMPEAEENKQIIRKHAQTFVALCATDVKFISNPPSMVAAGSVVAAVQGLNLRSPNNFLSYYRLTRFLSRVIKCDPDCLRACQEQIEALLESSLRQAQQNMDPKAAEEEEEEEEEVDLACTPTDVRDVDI

Cl.Cl.N[C@H]1CC[C@H](Nc2nc(NC3CCN(C(=O)c4cccc(C(F)(F)F)c4F)CC3)c3ncn(C4CCCC4)c3n2)CC1 [compound 12, trans-1-{4-[2-(4-Amino-cyclohexylamino)-9-cyclopentyl-9H-purin-6-ylamino]-piperidin-1-yl}-1-(2-fluoro-3-trifluoromethyl-phenyl)-methanone dihydrochloride]
IC50 [1]: 0.614 µM
IC50 ([2]; NCI-H460, MTT assay, value (SD, n) where given, read-out: H-460 Lung (IC50 µM)): 0.38 µM
IC50 ([3]; HL-60, MTT assay, value (SD, n) where given, read-out: HL-60 Leuk. (IC50 µM)): 0.16 µM
IC50 ([4]; PC-3, MTT assay, value (SD, n) where given, read-out: PC-3 Prostate (IC50 µM)): 0.48 µM
Mean Red Blood Cell to Plasma Ratio [5]: 1.9
AUC(0-inf) [6]: 2.55 µg·h/mL
Cmax [6]: 4.11 µg/mL
half-life [6]: 2.3 h
concentration at 0.083 h [6]: 4.11 ± 0.754 µg/mL
concentration at 0.25 h [6]: 2.36 ± 0.124 µg/mL
concentration at 0.5 h [6]: 1.09 ± 0.0361 µg/mL
concentration at 1 h [6]: 0.465 ± 0.0346 µg/mL
concentration at 3 h [6]: 0.0747 ± 0.0174 µg/mL
concentration at 6 h [6]: 0.027 ± 0.0027 µg/mL
concentration at 8 h [6]: 0.0169 ± 0.0014 µg/mL
IC50 [7]: 5 nM
Conc. (ng/ml) in plasma [8, 9]: BLQ
Cls ([8]; Cassette #1): 1.18 L/h/kg

Cl.Cl.N[C@H]1CC[C@H](Nc2nc(NC3CCN(C(=O)Oc4ccc(Br)cc4)CC3)c3ncn(C4CCCC4)c3n2)CC1 [compound 81, trans-4-[2-(4-Amino-cyclohexylamino)-9-cyclopentyl-9H-purin-6-ylamino]-piperidine-1-carboxylic acid 4-bromo-phenyl ester dihydrochloride]
IC50 [1]: 0.067 µM
IC50 [2, 10]: 0.07 µM
IC50 [3, 11]: 0.02 µM
IC50 [4, 12]: 0.12 µM
Mean Red Blood Cell to Plasma Ratio ([5]; dihydrochloride): 3.3 and 4.5
AUC(0-inf) [6]: 0.66 µg·h/mL
Cmax [6]: 1.77 µg/mL
half-life [6]: 1.7 h
concentration at 0.083 h [6]: 1.77 ± 0.384 µg/mL
concentration at 0.25 h [6]: 0.394 ± 0.142 µg/mL
concentration at 0.5 h [6]: 0.164 ± 0.0472 µg/mL
concentration at 1 h [6]: 0.0653 ± 0.01 µg/mL
concentration at 3 h [6]: 0.0127 ± 0.0034 µg/mL
concentration at 6 h [6]: 0.0054 ± 0.0015 µg/mL
concentration at 8 h [6]: 0.0035 ± 0.0009 µg/mL
IC50 [7]: 39 nM
Conc. (ng/ml) in plasma ([8]; Cassette #2, single 18 mg/kg intravenous cassette dose): BLQ
Cls ([8]; Cassette #2): 4.55 L/h/kg

COC(=O)c1ccc(OC(=O)N2CCC(Nc3nc(N[C@H]4CC[C@H](N)CC4)nc4c3ncn4C3CCCC3)CC2)cc1.Cl.Cl [compound 83, trans-4-[2-(4-Amino-cyclohexylamino)-9-cyclopentyl-9H-purin-6-ylamino]-piperidine-1-carboxylic acid 4-methoxycarbonyl-phenyl ester dihydrochloride]
IC50 [1]: 0.185 µM
IC50 [2, 10]: 0.07 µM
IC50 [3, 11]: 0.06 µM
IC50 [4, 12]: 0.15 µM
Mean Red Blood Cell to Plasma Ratio [5]: 112.2
AUC(0-inf) [6]: 0.449 µg·h/mL
Cmax [6]: 1.52 µg/mL
half-life [6]: 0.7 h
concentration at 0.083 h [6]: 1.52 ± 0.612 µg/mL
concentration at 0.25 h [6]: 0.218 ± 0.0928 µg/mL
concentration at 0.5 h [6]: 0.0613 ± 0.0329 µg/mL
concentration at 1 h [6]: 0.0141 µg/mL
concentration at 3 h [6]: 0.0041 µg/mL
concentration at 6 h [6]: 0.0016 µg/mL
concentration at 8 h [6]: 0.0063 µg/mL
IC50 [7]: 44 nM
Conc. (ng/ml) in plasma [8, 9]: BLQ
Cls ([8]; Cassette #1): 6.684 L/h/kg
